Assay results taken from patent US12441695B2, “Substituted thiadiazinone dioxide and preparation method therefor, herbicidal composition, and application therefor” (Qingdao Kingagroot Chemical Compound Co., Ltd., priority 2019, dated 2025).

Legend:
[1] = system: monocotyledonous and dicotyledonous weeds; experiment: Experiment on weeding effect in post-emergence stage (weeds); format: in vivo; details: 600 g/ha active ingredient plus water 450 kg/ha, 3 weeks after application, fresh weight control rate; for Amaranthus retroflexus activity level (growth control rate): fomesafen-resistant Amaranthus retroflexus
Procedure, shortened: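 Greenhouse pot-grown weeds and crops sprayed post-emergence 2–3 weeks after sowing with compound in acetone/Tween 80/water. Fresh-weight growth control scored after 3 weeks on a 0–5 scale (5: >85%, 0: <5%).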

[2] = system: major crops (wheat, corn, rice, soybean, cotton, oilseed rape, millet, sorghum); experiment: Experiment on weeding effect in post-emergence stage (crops); format: in vivo; details: 600 g/ha active ingredient plus water 450 kg/ha, 3 weeks after application; for corn plant damage level (growth control rate): crop corn; for rice plant damage level (growth control rate): crop rice; for soybean plant damage level (growth control rate): crop soybean
Procedure, shortened: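 Weed and crop seeds were sown in soil-filled pots, covered with 0.5–2 cm soil and grown in a greenhouse. Plants were sprayed 2–3 weeks after sowing using a spray tower, with compound dissolved in acetone plus Tween 80 and diluted in water. Effect was expressed as fresh-weight growth control rate.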

SMILES: CCC(=O)N1c2c(F)cc(F)cc2C(=O)N(C(C)C)S1(=O)=O [Compound 214]
- Amaranthus retroflexus activity level (growth control rate) [1]: 5 (Level 5: growth control rate is above 85%)
- Digitaria sanguinalis activity level (growth control rate) [1]: 5 (Level 5: growth control rate is above 85%)
- Echinochloa crus-galli activity level (growth control rate) [1]: 4 (Level 4: growth control rate is greater than or equal to 60% and less than 85%)
- Setaria viridis activity level (growth control rate) [1]: 5 (Level 5: growth control rate is above 85%)
- corn plant damage level (growth control rate) [2]: 0 (Level 0: growth control rate is less than 5%)

SMILES: CC(C)N1C(=O)c2cc(F)c(F)cc2NS1(=O)=O [Compound 146]
- Amaranthus retroflexus activity level (growth control rate) [1]: 5 (Level 5: growth control rate is above 85%)
- Digitaria sanguinalis activity level (growth control rate) [1]: 4 (Level 4: growth control rate is greater than or equal to 60% and less than 85%)
- Echinochloa crus-galli activity level (growth control rate) [1]: 5 (Level 5: growth control rate is above 85%)
- Setaria viridis activity level (growth control rate) [1]: 5 (Level 5: growth control rate is above 85%)
- corn plant damage level (growth control rate) [2]: 1 (Level 1: growth control rate is greater than or equal to 500 and less than 200%)
- rice plant damage level (growth control rate) [2]: 0 (Level 0: growth control rate is less than 5%)
- soybean plant damage level (growth control rate) [2]: 1 (Level 1: growth control rate is greater than or equal to 500 and less than 200%)

SMILES: C#CCN1c2ccc(F)cc2C(=O)N(C(C)C)S1(=O)=O [Compound 51]
- Amaranthus retroflexus activity level (growth control rate) [1]: 5 (Level 5: growth control rate is above 85%)
- Echinochloa crus-galli activity level (growth control rate) [1]: 3 (Level 3: growth control rate is greater than or equal to 40% and less than 60%)
- Setaria viridis activity level (growth control rate) [1]: 3 (Level 3: growth control rate is greater than or equal to 40% and less than 60%)
- corn plant damage level (growth control rate) [2]: 0 (Level 0: growth control rate is less than 5%)
- rice plant damage level (growth control rate) [2]: 0 (Level 0: growth control rate is less than 5%)
- soybean plant damage level (growth control rate) [2]: 0 (Level 0: growth control rate is less than 5%)

SMILES: CC(C)N1C(=O)c2cc(F)cc(Br)c2NS1(=O)=O [Compound 143]
- Amaranthus retroflexus activity level (growth control rate) [1]: 5 (Level 5: growth control rate is above 85%)
- Digitaria sanguinalis activity level (growth control rate) [1]: 5 (Level 5: growth control rate is above 85%)
- Echinochloa crus-galli activity level (growth control rate) [1]: 4 (Level 4: growth control rate is greater than or equal to 60% and less than 85%)
- Setaria viridis activity level (growth control rate) [1]: 5 (Level 5: growth control rate is above 85%)
- corn plant damage level (growth control rate) [2]: 1 (Level 1: growth control rate is greater than or equal to 500 and less than 200%)
- rice plant damage level (growth control rate) [2]: 0 (Level 0: growth control rate is less than 5%)
- soybean plant damage level (growth control rate) [2]: 1 (Level 1: growth control rate is greater than or equal to 500 and less than 200%)

SMILES: CCCOC(=O)N1c2c(F)cc(F)cc2C(=O)N(C(C)C)S1(=O)=O [Compound 218]
- Amaranthus retroflexus activity level (growth control rate) [1]: 5 (Level 5: growth control rate is above 85%)
- Echinochloa crus-galli activity level (growth control rate) [1]: 4 (Level 4: growth control rate is greater than or equal to 60% and less than 85%)
- Setaria viridis activity level (growth control rate) [1]: 5 (Level 5: growth control rate is above 85%)
- corn plant damage level (growth control rate) [2]: 0 (Level 0: growth control rate is less than 5%)
- rice plant damage level (growth control rate) [2]: 1 (Level 1: growth control rate is greater than or equal to 500 and less than 200%)

SMILES: CCCS(=O)(=O)N1c2c(F)cc(F)cc2C(=O)N(C(C)C)S1(=O)=O [Compound 229]
- Amaranthus retroflexus activity level (growth control rate) [1]: 3 (Level 3: growth control rate is greater than or equal to 40% and less than 60%)
- corn plant damage level (growth control rate) [2]: 1 (Level 1: growth control rate is greater than or equal to 500 and less than 200%)

SMILES: CC(C)N1C(=O)c2cc(F)ccc2N(C(=O)C(C)(C)C)S1(=O)=O [Compound 182]
- Amaranthus retroflexus activity level (growth control rate) [1]: 3 (Level 3: growth control rate is greater than or equal to 40% and less than 60%)
- corn plant damage level (growth control rate) [2]: 0 (Level 0: growth control rate is less than 5%)
- rice plant damage level (growth control rate) [2]: 0 (Level 0: growth control rate is less than 5%)
- soybean plant damage level (growth control rate) [2]: 0 (Level 0: growth control rate is less than 5%)

SMILES: CC(C)N1C(=O)c2cc(F)ccc2N(C)S1(=O)=O [Compound 49]
- Amaranthus retroflexus activity level (growth control rate) [1]: 5 (Level 5: growth control rate is above 85%)
- Echinochloa crus-galli activity level (growth control rate) [1]: 3 (Level 3: growth control rate is greater than or equal to 40% and less than 60%)
- Setaria viridis activity level (growth control rate) [1]: 3 (Level 3: growth control rate is greater than or equal to 40% and less than 60%)
- corn plant damage level (growth control rate) [2]: 0 (Level 0: growth control rate is less than 5%)
- rice plant damage level (growth control rate) [2]: 0 (Level 0: growth control rate is less than 5%)
- soybean plant damage level (growth control rate) [2]: 0 (Level 0: growth control rate is less than 5%)

SMILES: CCCCC(=O)N1c2ccc(F)cc2C(=O)N(C(C)C)S1(=O)=O [Compound 181]
- Amaranthus retroflexus activity level (growth control rate) [1]: 5 (Level 5: growth control rate is above 85%)
- corn plant damage level (growth control rate) [2]: 0 (Level 0: growth control rate is less than 5%)
- rice plant damage level (growth control rate) [2]: 0 (Level 0: growth control rate is less than 5%)
- soybean plant damage level (growth control rate) [2]: 0 (Level 0: growth control rate is less than 5%)

SMILES: CC(C)OC(=O)N1c2c(F)cc(F)cc2C(=O)N(C(C)C)S1(=O)=O [Compound 219]
- Amaranthus retroflexus activity level (growth control rate) [1]: 5 (Level 5: growth control rate is above 85%)
- Digitaria sanguinalis activity level (growth control rate) [1]: 3 (Level 3: growth control rate is greater than or equal to 40% and less than 60%)
- Echinochloa crus-galli activity level (growth control rate) [1]: 5 (Level 5: growth control rate is above 85%)
- Setaria viridis activity level (growth control rate) [1]: 5 (Level 5: growth control rate is above 85%)
- corn plant damage level (growth control rate) [2]: 1 (Level 1: growth control rate is greater than or equal to 500 and less than 200%)

SMILES: CC(C)N1C(=O)c2cc(Br)ccc2NS1(=O)=O [B, reference compound]
- Amaranthus retroflexus activity level (growth control rate) [1]: 1 (Level 1: growth control rate is greater than or equal to 500 and less than 200%)
- Digitaria sanguinalis activity level (growth control rate) [1]: 0 (Level 0: growth control rate is less than 5%)
- Echinochloa crus-galli activity level (growth control rate) [1]: 0 (Level 0: growth control rate is less than 5%)
- Setaria viridis activity level (growth control rate) [1]: 0 (Level 0: growth control rate is less than 5%)
- corn plant damage level (growth control rate) [2]: 0 (Level 0: growth control rate is less than 5%)
- rice plant damage level (growth control rate) [2]: 0 (Level 0: growth control rate is less than 5%)
- soybean plant damage level (growth control rate) [2]: 0 (Level 0: growth control rate is less than 5%)

SMILES: CC(C)N1C(=O)c2cc(F)c(Cl)cc2NS1(=O)=O [Compound 147]
- Amaranthus retroflexus activity level (growth control rate) [1]: 3 (Level 3: growth control rate is greater than or equal to 40% and less than 60%)
- corn plant damage level (growth control rate) [2]: 0 (Level 0: growth control rate is less than 5%)
- rice plant damage level (growth control rate) [2]: 0 (Level 0: growth control rate is less than 5%)

SMILES: CCN1c2ccc(F)cc2C(=O)N(C(C)C)S1(=O)=O [Compound 176]
- Amaranthus retroflexus activity level (growth control rate) [1]: 5 (Level 5: growth control rate is above 85%)
- corn plant damage level (growth control rate) [2]: 0 (Level 0: growth control rate is less than 5%)
- rice plant damage level (growth control rate) [2]: 0 (Level 0: growth control rate is less than 5%)
- soybean plant damage level (growth control rate) [2]: 0 (Level 0: growth control rate is less than 5%)

SMILES: CCCC(C)N1C(=O)c2cc(F)ccc2NS1(=O)=O (stereo not shown) [Compound 163]
- Amaranthus retroflexus activity level (growth control rate) [1]: 3 (Level 3: growth control rate is greater than or equal to 40% and less than 60%)
- rice plant damage level (growth control rate) [2]: 0 (Level 0: growth control rate is less than 5%)
